Results taken from publication PMC6523531, “Mechanistic Studies on the Absorption-Enhancing Effects of Gemini Surfactant on the Intestinal Absorption of Poorly Absorbed Hydrophilic Drugs in Rats” (Pharmaceutics, 2019).

Legend:
rat small intestines = assay: In situ closed-loop enteric absorption of CF with absorption enhancers; assay type: in vivo; conditions: for Enhancement Ratio (AUC with enhancer/AUC control without enhancer): CF 0.5 mg/kg, rat small intestine
Procedure: The enteric absorption of CF was examined by an in situ closed-loop method, as reported previously. The experiments were carried out in accordance with the guidelines of the Animal Ethics Committee at Kyoto Pharmaceutical University. The protocols were approved by this Committee (permit number: 16-12-069, permit date: 14 April 2016). The rats were starved overnight for approx. 16 h pre-dosing, but water was freely available. After inducing anesthesia with sodium pentobarbital which was administered intraperitoneally at a dose of 32 mg/kg body weight, the rats were placed under a heat lamp to maintain a body temperature at around 37 °C, and the intestines were exposed using a midline-abdominal incision. After the bile duct was ligated, the intestines were washed with phosphate buffered saline (PBS, pH 7.4), and the remaining buffer solution was expelled with air. Enteric cannulation was performed at both ends using polyethylene tubing, and the distal parts of the small intestines were clipped by forceps. The dosing solutions (3 mL) with or without absorption enhancers kept at 37 °C, were directly introduced into the lumen of the enteric loop through a cannulated opening in the proximal part of the small enteric loop, which was then closed by clipping with another forceps. The jugular vein was exposed, and approx. 0.3 mL of blood was collected via a direct puncture into heparinized syringes at predetermined time intervals up to 240 min. The samples were immediately centrifuged at 12,000 rpm (15,000× g) for a period of 5 min to obtain the plasma fraction, which was stored on ice for further analysis. CF fluorescence signals in these plasma samples were detected after the treatment with the same volume of acetonitrile using a fluorescence spectrophotometer, Powerscan1 HT supplied by BioTek Instruments (Winooski, VT, USA) at an excitation wavelength of 485 nm and an emission wavelength of 535 nm. There was no significant background fluorescence in the plasma when the fluorescence intensities of CF were determined in this study. The peak drug concentrations (Cmax) and the time to reach the peak drug concentrations (Tmax) in the plasma were directly determined from the plasma concentration–time profiles. The area under the curve (AUC) was calculated by the trapezoidal method from pre-dose (time zero) till the administration of the final sample. The absorption enhancement ratios of CF, with or without absorption enhancers, were calculated as follows: Absorption enhancement ratio = AUCwith enhancer/AUCcontrol without enhancer

Caco-2 cell monolayers [1] = assay: Transepithelial electrical resistance (TEER) of Caco-2 cell monolayers; assay type: cell-based, Human
Procedure: (§1) Caco-2 cells (passage 45) were cultured in 175-cm^2 culture flask (Thermo Fisher Scientific™, Waltham, MA, USA). The culture medium consisted of DMEM containing 10% FBS, 0.1 mM MEM–NEAA, 2 mM glutamine, 100 U/mL penicillin, and 100 µg/mL streptomycin [30]. Cells were cultured in a humidified atmosphere of 5% CO2 at 37 °C. The culture medium was changed every two days. When the cultured Caco-2 cells became sub-confluent, they were seeded onto 12-mm Transwell® with 0.4-µm pore polycarbonate membrane inserts (Corning Inc., New York, NY, USA) at a density of 1 × 10^5 cells/insert. The transepithelial transport studies were performed when the transepithelial electrical resistance (TEER) values were more than 500 Ω·cm^2 (i.e., after 21 days). Briefly, after removing the incubation medium by aspiration, the apical and basal sides were washed thrice by Hank’s Balanced Salt (HBSS) solution (pH 7.4). The cells were incubated in HBSS (pH 6.0) for the apical side and HBSS (pH 7.4) for the basal side for 20 min at 37 °C. HBSS supplemented with 1 mg/mL glucose was used in all cell culture experiments. After removing the washing solution by aspiration, 500 µL of 10 µM CF in a HBSS (pH 6.0) solution with or without various concentrations (0.001% v/v, 0.01% v/v, 0.025% v/v, 0.05% v/v, and 0.1% v/v) of SLG-30, 0.1% (w/v) and 1% (w/v) NaGC or 0.05% (w/v) sodium laurate were added to the apical side at zero time, whereas precisely 1500 µL of HBSS (pH 7.4) was added to the basal side at 37 °C. The cells were kept at 37 °C and 5% CO2 and were continuously agitated on a shaker during the transport experiments.
(§2) The TEER values were measured by Millicell® (ERS-2 Volt-Ohm Meter, Billerica, MA, USA) at the predetermined times up to 24 h, and the initial values were considered as 100%. The samples from the basal side were withdrawn at predetermined time points up to 24 h. The samples were replaced with an equal volume of HBSS (pH 7.4). CF was determined as previously mentioned. The apparent permeability coefficients Papp (cm/s) for the transported CF was determined by the following equation: Papp=dXR/dt×1/A×1/C0 where Papp is the apparent permeability coefficient in centimeters per second, XR is the amount of CF in moles in the receptor side, dXR/dt is the flux across the monolayer, A is the diffusion area (i.e., in square centimeters), and C0 is the initial concentration of CF in the donor side in moles per milliliter.

Caco-2 cell monolayers [2] = assay: Transport of CF across Caco-2 cell monolayers; assay type: in vitro ADME, Human; conditions: 10 µM CF
Procedure: as §1, with “After removing the washing solution by aspiration, 500 µL of 10 µM CF in a HBSS (pH 6.0) solution with or without various concentrations (0.001% v/v, 0.01% v/v, 0.025% v/v, 0.05% v/v, and 0.1% v/v) of SLG-30, 0.1% (w/v) and 1% (w/v) NaGC or 0.05% (w/v) sodium laurate were added to the apical side at zero time, whereas precisely 1500 µL of HBSS (pH 7.4) was added to the basal side at 37 °C. The cells were kept at 37 °C and 5% CO2 and were continuously agitated on a shaker during the transport experiments.” left out
as §2, with “The samples from the basal side were withdrawn at predetermined time points up to 24 h. The samples were replaced with an equal volume of HBSS (pH 7.4).” left out

Caco-2 cells = assay: Caco-2 cell damage by LDH release; assay type: cell-based, Human; conditions: after the transport studies, n = 6
Procedure: After the transport studies were over, the solution on the apical side of each well was collected. Cell injury caused by SLG-30 was determined by tracking the LDH release. The cell precipitate and the monolayers left on the filters were solubilized with 1% (v/v) Triton X-100. The solutions from apical sides and the lysates were centrifuged for 7 min at 200× g at a temperature of 4 °C. The activities of LDH in the supernatant were measured. (LDHrelease) stands for the activity of the LDH released into the apical side in the existence of SLG-30. (LDHcell) stands for the activity of the LDH obtained from the cell lysate. LDHreleased% was calculated by the following equation:LDHrelease% = LDHrelease × 100/(LDHrelease + LDHcells)

[3] = system: brush-border membrane vesicles (BBMVs); assay: Membrane fluidity of BBMVs by fluorescence polarization (fluorescence anisotropy); conditions: rat BBMVs, 37 °C, SLG-30 0.1-1.0% v/v, vs control, n = 4
Procedure: To prepare BBMVs, we followed the methods as reported previously with a slight modification. Briefly, an in situ small intestinal loop was prepared in each rat, as mentioned above, and then, PBS (pH 7.4) was administered into the loop. The fat was trimmed off from the small intestine and mesentery. Then, the whole small intestine was soaked in ice-cold PBS (pH 7.4). The small intestine was divided into 10 cm segments. Mucosa was scraped out with a slide glass from each of these segments and used for subsequent studies. BBMVs were prepared by the divalent cation precipitation method using MgCl2 in the presence of ethylenebis (oxyethylenenitrilo) tetraacetic acid (EGTA). Briefly, the collected mucosa was homogenized in a buffer containing mannitol (300 mM), EGTA (5 mM), and Tris (pH 7.4) (12 mM) by using a tissue homogenizer. An aqueous solution of 10 mM magnesium chloride was added to the homogenate. The homogenate was centrifuged at 3000× g for 15 min. The supernatant was then centrifuged at 32,000× g for 30 min. The pellet was resuspended in a buffer containing mannitol (300 mM), EGTA (5 mM), and Tris (pH 7.4) (12 mM) by using a 26-G needle. The protein concentration was determined by the BCA method using bovine serum albumin as a standard, and the final concentration was adjusted to 1 mg/ml in each Eppendorf tube. The samples were frozen by liquid nitrogen and kept at −80 °C for further studies.
The BBMVs (100 μg protein) were incubated with 1 μM DPH, with 0.5 μM tma-DPH or with 5 μM DNS-Cl in HEPES-Tris buffer (25 mM HEPES, 5.4 mM KCl, 1.8 mM CaCl2, 0.8 mM MgSO4, 140 mM NaCl, 5 mM glucose, pH 7.4 adjusted by 1 M Tris) in the dark at 37 °C for 30 min [25, 28]. Then, various concentrations (0.1% v/v, 0.25% v/v, 0.5% v/v, and 1.0% v/v) of SLG-30 were added. Then, the samples were incubated in the dark for 1 min at 37 °C. For the control group, the same procedure was carried out by adding the HEPES-Tris buffer only. The fluorescence intensities and the steady-state polarization of fluorescence expressed as the fluorescence anisotropy, r, of the labeled membrane vesicles were measured at 37 °C. The excitation and emission wavelengths were λex = 360 nm, and λem = 430 nm for DPH and tma-DPH and λex = 380 nm and λem = 480 nm for DNS-Cl. The measurements were carried out by using a Hitachi Spectrofluorometer (F-2000 Spectrofluorometer, Hitachi Seisakusho Corp, Yokohama, Japan) equipped with a polarizer set.
The fluorescence anisotropy (r) was calculated using the following equation: r=IV−IH/IV+2IH where IV and IH respectively represent the […] fluorescence intensities to the polarized excitation plane.

[4] = in situ closed loop, 0.5% (v/v) SLG-30, 0.5% (w/v) sodium laurate, 1% (w/v) sodium glycocholate

Row | Structure (SMILES) | Enhancement Ratio (AUC with enhancer/AUC control without enhancer) (rat small intestines; [4]) | Tmax of CF (rat small intestines; plasma CF (0.5 mg/kg) given with enhancer into rat small intestine, in situ closed loop, 0.5% (v/v) SLG-30, 0.5% (w/v) sodium laurate, 1% (w/v) sodium glycocholate, mean ± S.E., n = 3) | TEER values (Caco-2 cell monolayers [1]; 0.05% (w/v) sodium laurate, without recovering to the baseline) | increase of the transport of CF vs control (Caco-2 cell monolayers [2]; 0.05% (w/v) sodium laurate) | activity of LDH released from Caco-2 cells vs control (Caco-2 cells; 0.05% (w/v) sodium laurate) | fluorescence anisotropy of tma-DPH (outer lipid bilayers) ([3]; 0.5 μM tma-DPH) | fluorescence anisotropy of DPH (inner lipid bilayers) ([3]; 1 μM DPH) | fluorescence anisotropy of DNS-Cl (protein portion) ([3]; 5 μM DNS-Cl, p < 0.01) | AUC0→240 of CF higher than that of the control group (rat small intestines; rat in situ closed loop, 0.5% (v/v) SLG-30 or 1% (w/v) NaGC) | TEER values (Caco-2 cell monolayers [1]; 0.1% (w/v) NaGC) | TEER values (Caco-2 cell monolayers [1]; 1% (w/v) NaGC) | effect on the transport of CF (Caco-2 cell monolayers [2]; 0.1% (w/v) NaGC) | increase of the transport of CF vs control (Caco-2 cell monolayers [2]; 1% (w/v) NaGC) | release of LDH from Caco-2 cells vs control (Caco-2 cells; 0.1% (w/v) and 1% (w/v) NaGC)
1 | CCCCCCCCCCCC(=O)[O-].[Na+] [Sodium laurate, sodium laurate] | 2.7 | approximately 15 min | significantly reduced | 94 times | significantly increased |  |  |  |  |  |  |  |  | 
2 | CC(C)CCC[C@@H](C)[C@H]1CC[C@H]2[C@@H]3CC=C4C[C@@H](O)CC[C@]4(C)[C@H]3CC[C@]12C [cholesterol] |  |  |  |  |  | increased the fluorescence anisotropy | increased the fluorescence anisotropy | increased the fluorescence anisotropy |  |  |  |  |  | 
3 | C[C@H](CCC(=O)NCC(=O)[O-])[C@H]1CC[C@H]2[C@@H]3[C@H](O)C[C@@H]4C[C@H](O)CC[C@]4(C)[C@H]3C[C@H](O)[C@]12C.[Na+] [Sodium glycocholate, sodium glycocholate] | 4.5 |  |  |  |  |  |  |  | 4.5 times | Almost no effect | significantly decreased then recovered to the baseline | insignificant effect | 5 times | Neither 0.1% (w/v) nor 1% (w/v) of NaGC increased the release of LDH
